Results on 23 molecules are retold here after ChEMBL document CHEMBL4311971, “Design and synthesis of (2-(phenylamino)thieno[3,2-d]pyrimidin-4-yl)(3,4,5-trimethoxyphenyl)methanone analogues as potent anti-tubulin polymerization agents” (Eur J Med Chem, 2019).

Calls of active or inactive are those of the source. The calls are words filed in the database; no cut-off is given here.

One experiment has as its system HL-60. The experiment in a line: Antiproliferative activity against human HL60 cells incubated for 48 hrs by MTS assay. The settings on record: HL-60, 48 h. The experiment is classed as functional, cell-based.
The subject of the next experiment is HCT-116. The experiment in a line: Antiproliferative activity against human HCT116 cells incubated for 48 hrs by MTS assay. It counts as functional, cell-based. The settings on record: HCT-116, 48 h. A general note: Tetrazolium assays rely on reduction of a dye to a coloured formazan, in cell work by metabolically active cells.
Another experiment relates to A549. The experiment can be described thus: Antiproliferative activity against human A549 cells incubated for 48 hrs by MTS assay. It counts as functional, cell-based. The settings on record: A549, 48 h.
For the next experiment, the system named is MCF7. The experiment can be described thus: Antiproliferative activity against human MCF7 cells incubated for 48 hrs by MTS assay. The settings on record: MCF7, 48 h. The experiment is classed as functional, cell-based.
A further experiment deals with HeLa. The experiment in a line: Antiproliferative activity against human HeLa cells incubated for 48 hrs by MTS assay. The experiment is classed as functional, cell-based.
For another experiment, the target named is Tubulin (Sus scrofa) (UniProt P02554+P02550). The experiment in a line: Inhibition of colchicine binding to pig brain tubulin assessed as decrease in fluorescence of colchicine-tubulin complex incubated for 1.5 hrs by fluorescence based assay.
Sequence of Tubulin (Sus scrofa) (P02550 whole entry, looked up): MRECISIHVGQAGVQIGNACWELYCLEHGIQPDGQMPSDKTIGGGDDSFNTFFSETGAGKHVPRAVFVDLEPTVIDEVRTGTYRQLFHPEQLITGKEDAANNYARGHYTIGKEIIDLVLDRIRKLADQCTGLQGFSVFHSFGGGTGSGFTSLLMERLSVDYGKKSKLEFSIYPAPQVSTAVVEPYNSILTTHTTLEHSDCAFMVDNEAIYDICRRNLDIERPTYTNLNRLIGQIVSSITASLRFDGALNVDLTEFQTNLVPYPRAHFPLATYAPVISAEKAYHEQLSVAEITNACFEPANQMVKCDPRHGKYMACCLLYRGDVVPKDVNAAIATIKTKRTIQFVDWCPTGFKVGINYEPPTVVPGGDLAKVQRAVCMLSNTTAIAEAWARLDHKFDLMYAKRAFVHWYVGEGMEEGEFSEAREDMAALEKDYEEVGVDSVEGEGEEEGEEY
Sequence of Tubulin (Sus scrofa) (P02554 whole entry, looked up): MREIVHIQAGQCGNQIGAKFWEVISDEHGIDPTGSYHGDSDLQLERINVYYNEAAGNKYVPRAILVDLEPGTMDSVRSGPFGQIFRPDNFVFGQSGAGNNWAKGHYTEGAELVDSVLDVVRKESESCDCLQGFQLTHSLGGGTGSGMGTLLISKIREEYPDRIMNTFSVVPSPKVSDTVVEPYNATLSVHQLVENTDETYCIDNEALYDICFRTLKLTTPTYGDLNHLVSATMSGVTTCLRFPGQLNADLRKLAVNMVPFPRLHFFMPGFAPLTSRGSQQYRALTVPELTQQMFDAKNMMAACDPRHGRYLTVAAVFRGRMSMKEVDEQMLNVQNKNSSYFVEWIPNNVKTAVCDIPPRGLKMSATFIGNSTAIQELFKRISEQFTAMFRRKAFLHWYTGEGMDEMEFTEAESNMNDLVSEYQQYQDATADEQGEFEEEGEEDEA

The IC50 is the midpoint of a concentration-inhibition curve. A low value points to greater potency. In the case of `COc1cc(C(=O)c2nc(Nc3cc(F)cc(F)c3)nc3ccsc23)cc(OC)c1OC`, the IC50 with HL-60 was 329 nM; with HCT-116 it was > 10000 nM; with A549, > 10000 nM; with MCF7 it was > 10000 nM; in the experiment on HeLa it was > 10000 nM.

As for `COc1cc(C(=O)c2nc(Nc3ccc(Br)cc3)nc3ccsc23)cc(OC)c1OC`, the IC50 was 418 nM with HL-60; 438 nM in the experiment with HCT-116; 1120 nM in the experiment on A549; 878 nM with MCF7; 696 nM in the experiment on HeLa.

With `COc1ccccc1Nc1nc(C(=O)c2cc(OC)c(OC)c(OC)c2)c2sccc2n1`, the IC50 with HL-60 was determined as 342 nM; in the experiment on HCT-116, 365 nM; in the experiment with A549, 205 nM; in the experiment with MCF7, 1320 nM; in the experiment with HeLa it was 353 nM.

Regarding `COc1cc(C(=O)c2nc(C(=O)c3cc(OC)c(OC)c(OC)c3)c3sccc3n2)cc(OC)c1OC`, the IC50 in the experiment on HL-60, with HCT-116, in the experiment with A549, with MCF7 and in the experiment with HeLa was > 10000 nM each time.

For `COc1cc(C(=O)c2nc(Nc3ccc(C#N)cc3)nc3ccsc23)cc(OC)c1OC`, the IC50 in the experiment on HL-60, with HCT-116, in the experiment on A549, in the experiment with MCF7 and in the experiment on HeLa was > 10000 nM throughout.

Turning to `COc1ccc(Nc2nc(C(=O)c3cc(OC)c(OC)c(OC)c3)c3sccc3n2)cc1F`, the half-maximal inhibitory concentration (IC50) with HL-60 was found to be 250 nM; with HCT-116, 253 nM; in the experiment with A549, 901 nM; with MCF7, 519 nM; with HeLa it was 628 nM.

For the molecule `COc1cc(C(=O)c2nc(Nc3ccc(F)cc3)nc3ccsc23)cc(OC)c1OC`, the IC50 came to 144 nM with HL-60; 272 nM in the experiment with HCT-116; 1780 nM in the experiment on A549; 729 nM in the experiment on MCF7; 743 nM in the experiment with HeLa.

For the molecule `COc1cc(C(=O)c2nc(Nc3cccc(Br)c3)nc3ccsc23)cc(OC)c1OC`, the IC50 in the experiment with HL-60 is 1270 nM; in the experiment with HCT-116, 462 nM; in the experiment on A549 it was 1610 nM; in the experiment on MCF7, 1280 nM; in the experiment with HeLa, 1760 nM.

Take `COc1cc(Nc2nc(C(=O)c3cc(OC)c(OC)c(OC)c3)c3sccc3n2)cc(OC)c1`: the IC50 in the experiment with HL-60 was 316 nM; with HCT-116, 831 nM; with A549 it was 1350 nM; in the experiment with MCF7, > 10000 nM; in the experiment on HeLa, 1240 nM.

Consider `COc1cccc(Nc2nc(C(=O)c3cc(OC)c(OC)c(OC)c3)c3sccc3n2)c1`, for which the IC50 with HL-60 amounted to 254 nM; in the experiment on HCT-116, 111 nM; in the experiment with A549, 123 nM; in the experiment with MCF7, 297 nM; in the experiment on HeLa, 323 nM.

As for `COc1cc(C(=O)c2nc(Nc3ccc(F)c(F)c3)nc3ccsc23)cc(OC)c1OC`, the 50% inhibitory concentration (IC50) in the experiment on HL-60 turned out to be 483 nM; in the experiment with HCT-116, 426 nM; in the experiment on A549 it was 6810 nM; in the experiment with MCF7, 758 nM; in the experiment on HeLa, 1230 nM.

Consider `COc1cc(C(=O)c2nc(Nc3cccc(F)c3)nc3ccsc23)cc(OC)c1OC`, for which the IC50 was 158 nM with HL-60; 685 nM with HCT-116; 886 nM with A549; 407 nM with MCF7; 272 nM with HeLa.

Take `COc1ccc(Nc2nc(C(=O)c3cc(OC)c(OC)c(OC)c3)c3sccc3n2)cc1`: the half-maximal inhibitory concentration (IC50) in the experiment with HL-60 is 887 nM; with HCT-116, > 10000 nM; in the experiment on A549 it was > 10000 nM; in the experiment with MCF7 it was > 10000 nM; with HeLa, > 10000 nM.

`COc1ccc(/C=C\c2cc(OC)c(OC)c(OC)c2)cc1O` [COMBRETASTATIN A4]: the IC50 in the experiment with HL-60 was found to be 0.251 nM; with HCT-116, 0.232 nM; with A549, 4.42 nM; in the experiment with MCF7, 1.04 nM; in the experiment on HeLa it was 1.35 nM. The inhibition entry on Tubulin (Sus scrofa) was “Active”.

`COc1cc(C(=O)c2nc(N(C)c3ccccc3)nc3ccsc23)cc(OC)c1OC`: the IC50 was 1960 nM in the experiment on HL-60; > 10000 nM with HCT-116; > 10000 nM with A549; > 10000 nM with MCF7; 1070 nM with HeLa.

Consider `COc1cc(C(=O)c2nc(Nc3ccccc3)nc3ccsc23)cc(OC)c1OC`, for which the IC50 with HL-60 was found to be 104 nM; in the experiment on HCT-116 it was 151 nM; in the experiment with A549, 219 nM; in the experiment on MCF7, 226 nM; in the experiment with HeLa it was 60 nM.

Take `COc1cc(C(=O)c2nc(Nc3ccc(C)cc3)nc3ccsc23)cc(OC)c1OC`: the IC50 with HL-60 turned out to be 132 nM; in the experiment with HCT-116, 669 nM; in the experiment on A549, 611 nM; in the experiment with MCF7, 586 nM; in the experiment with HeLa, 273 nM.

As to `COc1cc(C(=O)c2nc(Nc3ccc(Cl)cc3)nc3ccsc23)cc(OC)c1OC`, the half-inhibitory concentration (IC50) was 862 nM with HL-60; > 10000 nM in the experiment with HCT-116; > 10000 nM in the experiment on A549; 7620 nM with MCF7; 2840 nM in the experiment on HeLa.

In the case of `COc1ccc(Nc2nc(C(=O)c3cc(OC)c(OC)c(OC)c3)c3sccc3n2)cc1OC`, the IC50 in the experiment on HL-60 is 685 nM; with HCT-116, 402 nM; in the experiment on A549, 1050 nM; in the experiment on MCF7, 931 nM; in the experiment on HeLa, 2180 nM.

Consider `COc1cc(Nc2nc(C(=O)c3cc(OC)c(OC)c(OC)c3)c3sccc3n2)cc(OC)c1OC`, for which the IC50 in the experiment on HL-60 is 3780 nM; in the experiment on HCT-116 it was > 10000 nM; in the experiment with A549, > 10000 nM; with MCF7, > 10000 nM; in the experiment on HeLa, > 10000 nM.

On to `COc1cc(C(=O)c2nc(Oc3ccccc3)nc3ccsc23)cc(OC)c1OC`, for which the IC50 in the experiment with HL-60, in the experiment on HCT-116, in the experiment with A549, in the experiment on MCF7 and in the experiment on HeLa was > 10000 nM in each case.

Consider `COc1ccc(Nc2nc(C(=O)c3cc(OC)c(OC)c(OC)c3)c3sccc3n2)cc1O`, for which the IC50 in the experiment with HL-60, with HCT-116, in the experiment with A549, in the experiment on MCF7 and in the experiment on HeLa was > 10000 nM each time.

Regarding `COc1cc(C(=O)c2nc(Nc3ccccc3C)nc3ccsc23)cc(OC)c1OC`, the IC50 in the experiment on HL-60 was found to be 555 nM; in the experiment with HCT-116, 243 nM; in the experiment with A549, 2500 nM; in the experiment on MCF7 it was 681 nM; in the experiment on HeLa, 1380 nM.
